# Test results published in article PMC7537397, “Deciphering and predicting CD4^+ T cell immunodominance of influenza virus hemagglutinin” (The Journal of Experimental Medicine, 2020).
# Experiments:
# [1] = test system: H1-HA–reactive T cell clones from CD4^+ naive T cell compartment; format: cell-based, human
# [2] = test system: H1-HA–specific memory CD4^+ T cell clones, donor HD1; assay: Functional avidity of memory T cell clones with anti-head or anti-stem EBV-B cell clones as APCs; format: cell-based, human; conditions: HLA-DR–restricted clones specific for the peptide
# [3] = test system: HLA-DR, HLA-DQ, HLA-DP; assay: MHC-II restriction of T cell clones with blocking antibodies; format: cell-based, human
# [4] = molecular target: HLA-DRB1*08:01 (Homo sapiens, UniProt P01903+P01911, A100R/A103L/A169T/D86S/F76Y/H45Y/I96F/K41T/L162R/M171V/P40S/Q125H/Q178H/Q39Y/Q99D/R218S/R42G/S66Y/V115G/W38E); format: binding; conditions: pH 7
# [5] = test system: MHC-II molecules; assay: MS-based MHC-II peptidomics, H1-HA–pulsed anti-head and anti-stem EBV-B cell clones of donor HD1; parameters: species or system human; conditions: 401–420: anti-stem clone; 416–430 and 386–400: both anti-head and anti-stem clones; union of n = 3
# [6] = test system: H1-HA–reactive T cell clones from CD4^+ memory (Tcm, Tem, or cTfh) compartment, donor HD1; format: cell-based, human
# [7] = test system: H1-HA–specific memory CD4^+ T cell clones, donor HD1; format: cell-based, human; conditions: for functional avidity for peptide, memory T cell clone specific for the peptide: donor HD1 memory clones M1 (411–430), M2 (396–410), M3 (526–540), M4 (121–140), M5 (186–200), M6 (446–460), autologous monocytes; for functional avidity for peptide, memory T cell clone specific for the peptide / functional avidity for H1-HA protein, memory T cell clone specific for the peptide: from EC50, day 3; for functional avidity for H1-HA protein, memory T cell clone specific for the peptide: donor HD1 memory clones M1, M4, M5, M6; for fold lower functional avidity for H1-HA protein, memory T cell clone specific for the peptide: clones M2 (396–410) and M3 (526–540), had avidity for peptide comparable to clone M1
# [8] = test system: H1-HA–specific naive CD4^+ T cell clones, donor HD1; format: cell-based, human; conditions: for fold lower avidity for protein, naive T cell clone specific for the peptide: clones N2 (521–540) and N3 (536–555); for functional avidity for peptide, naive T cell clone specific for the peptide: donor HD1 naive clones N1 (411–430), N2 (521–540), N3 (536–555), autologous monocytes, from EC50, day 3
# [9] = test system: naive and memory CD4^+ T cells; assay: T cell library screening and epitope mapping, naive and memory CD4^+ T cells; format: cell-based, human; conditions: memory library
sequence,measurement,setting,value
AGAKSFYKNLIWLVKKGNSY,N sister clones (epitope-specific naive clones per TCR Vβ clonotype),[1],1
EDKHNGKLCKLRGVAPLHLG,N sister clones (epitope-specific naive clones per TCR Vβ clonotype),[1],1
EGRMNYYWTLVEPGDKITFE,"activation, proliferation and functional avidity with anti-stem compared with anti-head B cells as APCs",[2],much lower activation and proliferation
same,reduction of functional avidity with anti-stem compared with anti-head B cells as APCs,[2],10 fold
same,MHC-II restriction of T cell clones specific for the peptide,[3],HLA-DR restricted
EKMNTQFTAVGKEFNHLEKR,binding affinity to HLA-DRB1*08:01 relative to subdominant peptides,[4],comparable to that of subdominant peptides
same,"activation, proliferation and functional avidity with anti-stem compared with anti-head B cells as APCs",[2],much lower activation and proliferation
same,reduction of functional avidity with anti-stem compared with anti-head B cells as APCs,[2],10 fold
same,MHC-II restriction of T cell clones specific for the peptide,[3],HLA-DR restricted
same,"detection of H1-HA–derived peptides of the region by MHC-II immunopeptidomics, HD1 B cell clones",[5],did not detect any
same,number of different TCR Vβ clonotypes specific for the peptide,[6]; 88 distinct clonotypes in total,16 clonotypes
same,number of sequenced T cell clones specific for the peptide,[6]; 274 clones sequenced,62 clones
GFLDIWTYNAELLVL,N sister clones (epitope-specific naive clones per TCR Vβ clonotype),[1],1
GFLDIWTYNAELLVLLENER,N sister clones (epitope-specific naive clones per TCR Vβ clonotype),[1],1
GKLCKLRGVAPLHLG,N sister clones (epitope-specific naive clones per TCR Vβ clonotype),[1],1
HLEKRIENLNKKVDD,"activation, proliferation and functional avidity with anti-stem compared with anti-head B cells as APCs",[2],comparable functional avidity
same,MHC-II restriction of T cell clones specific for the peptide,[3],HLA-DR–restricted
same,"detection of H1-HA–derived peptides of the region by MHC-II immunopeptidomics, HD1 B cell clones",[5],detected by MHC-II immunopeptidomics on both anti-head and anti-stem B cell clones
KGKEVLVLWGIHHPS,MHC-II restriction of T cell clones specific for the peptide,[3],HLA-DQ
same,"functional avidity for peptide, memory T cell clone specific for the peptide",[7],functional avidity lower than the median of the distribution
same,"functional avidity for H1-HA protein, memory T cell clone specific for the peptide",[7],functional avidity lower than the median of the distribution
KLESTRIYQILAIYSTVASS,"fold lower avidity for protein, naive T cell clone specific for the peptide",[8],100 fold
same,"functional avidity for peptide, naive T cell clone specific for the peptide",[8],high avidity
LENERTLDYHDSNVK,MHC-II restriction of T cell clones specific for the peptide,[3],HLA-DQ
same,"functional avidity for peptide, memory T cell clone specific for the peptide",[7],functional avidity lower than the median of the distribution
same,"functional avidity for H1-HA protein, memory T cell clone specific for the peptide",[7],functional avidity lower than the median of the distribution
QNAIDEITNKVNSVI,"activation, proliferation and functional avidity with anti-stem compared with anti-head B cells as APCs",[2],comparable functional avidity
same,MHC-II restriction of T cell clones specific for the peptide,[3],HLA-DR–restricted
same,"detection of H1-HA–derived peptides of the region by MHC-II immunopeptidomics, HD1 B cell clones",[5],detected by MHC-II immunopeptidomics on both anti-head and anti-stem B cell clones
RIYQILAIYSTVASS,"fold lower functional avidity for H1-HA protein, memory T cell clone specific for the peptide",[7],"1,000 fold"
same,"functional avidity for peptide, memory T cell clone specific for the peptide",[7],high functional avidity
SRYSKKFKPEIAIRPKVRDQ,N sister clones (epitope-specific naive clones per TCR Vβ clonotype),[1],1
TVASSLVLVVSLGAISFWMC,"fold lower avidity for protein, naive T cell clone specific for the peptide",[8],100 fold
same,"functional avidity for peptide, naive T cell clone specific for the peptide",[8],high avidity
same,N sister clones (epitope-specific naive clones per TCR Vβ clonotype),[1],1
VNSVIEKMNTQFTAV,"fold lower functional avidity for H1-HA protein, memory T cell clone specific for the peptide",[7],"1,000 fold"
same,"functional avidity for peptide, memory T cell clone specific for the peptide",[7],high functional avidity
same,percentage of immunodominant T cell clones,[9]; donor HD4,31.1%
VVPRYAFAMERNAGSGIIIS,percentage of immunodominant T cell clones,[9]; donor HD3,24.5%
